# Reference: ChEMBL document CHEMBL1255459, “Identification and characterization of CTX-M-producing Shigella isolates in the United States” (2010)
# What was measured:
# Format in all cases: functional
# Shigella flexneri [1] = test: Antimicrobial activity against Shigella flexneri isolate AM13291 by broth microdilution method
# Shigella flexneri [2] = test: Antimicrobial activity against Shigella flexneri isolate AM19035 by broth microdilution method
# Shigella [3] = test: Antimicrobial activity against Shigella isolate DH-20369 by broth microdilution method
# Shigella [4] = test: Antimicrobial activity against Shigella isolate DH-13291 by broth microdilution method
# Shigella [5] = test: Antimicrobial activity against Shigella isolate DH-22855 by broth microdilution method
# Shigella [6] = test: Antimicrobial activity against Shigella isolate DH-19035 by broth microdilution method
# Shigella sonnei [7] = test: Antimicrobial activity against Shigella sonnei isolate AM22855 by broth microdilution method
# Shigella [8] = test: Antimicrobial activity against Shigella isolate DH-22451 by broth microdilution method
# Shigella sonnei [9] = test: Antimicrobial activity against Shigella sonnei isolate AM20369 by broth microdilution method
# Shigella [10] = test: Antimicrobial activity against Shigella isolate DH-26336 by broth microdilution method
# Shigella flexneri [11] = test: Antimicrobial activity against Shigella flexneri isolate AM26336 by broth microdilution method
# Shigella sonnei [12] = test: Antimicrobial activity against Shigella sonnei isolate AM22451 by broth microdilution method
MIC (Shigella flexneri [1]),MIC (Shigella flexneri [2]),MIC (Shigella [3]),MIC (Shigella [4]),MIC (Shigella [5]),MIC (Shigella [6]),MIC (Shigella sonnei [7]),MIC (Shigella [8]),MIC (Shigella sonnei [9]),MIC (Shigella [10]),MIC (Shigella flexneri [11]),MIC (Shigella sonnei [12]),SMILES
2 µg/mL,2 µg/mL,16 µg/mL,4 µg/mL,16 µg/mL,4 µg/mL,8 µg/mL,16 µg/mL,8 µg/mL,4 µg/mL,2 µg/mL,8 µg/mL,CO/N=C(\C(=O)N[C@@H]1C(=O)N2C(C(=O)[O-])=C(C[N+]3(C)CCCC3)CS[C@H]12)c1csc(N)n1 [CEFEPIME]
8 µg/mL,32 µg/mL,128 µg/mL,32 µg/mL,64 µg/mL,64 µg/mL,64 µg/mL,128 µg/mL,64 µg/mL,64 µg/mL,8 µg/mL,64 µg/mL,CO/N=C(\C(=O)N[C@@H]1C(=O)N2C(C(=O)O)=C(COC(C)=O)CS[C@H]12)c1csc(N)n1 [CEFOTAXIME]
16 µg/mL,32 µg/mL,> 64 µg/mL,32 µg/mL,> 64 µg/mL,32 µg/mL,64 µg/mL,> 64 µg/mL,64 µg/mL,32 µg/mL,16 µg/mL,> 64 µg/mL,CO/N=C(\C(=O)N[C@@H]1C(=O)N2C(C(=O)O)=C(CSc3nc(=O)c(O)nn3C)CS[C@H]12)c1csc(N)n1 [CEFTRIAXONE]

SMILES,MIC (Shigella flexneri [1]),MIC (Shigella flexneri [2]),MIC (Shigella [3]),MIC (Shigella [4]),MIC (Shigella [5]),MIC (Shigella [6]),MIC (Shigella sonnei [7]),MIC (Shigella [8]),MIC (Shigella sonnei [9]),MIC (Shigella [10]),MIC (Shigella flexneri [11]),MIC (Shigella sonnei [12])
CC(C)(O/N=C(\C(=O)N[C@@H]1C(=O)N2C(C(=O)[O-])=C(C[n+]3ccccc3)CS[C@H]12)c1csc(N)n1)C(=O)O [CEFTAZIDIME],0.5 µg/mL,0.5 µg/mL,16 µg/mL,2 µg/mL,16 µg/mL,2 µg/mL,8 µg/mL,32 µg/mL,8 µg/mL,4 µg/mL,0.5 µg/mL,8 µg/mL
